Experimental findings from ChEMBL document CHEMBL3045813, “Study of the inactivation of copper, zinc superoxide dismutase by tetracycline analogues” (Med Chem Res, 2008) are described below.

Calls of active or inactive are those of the source. The rule behind the calls is not given here.

The target of experiment [1] is Superoxide dismutase [Cu-Zn] (Homo sapiens) (UniProt P00441). The experiment in a line: Binding affinity to Superoxide dismutase [Cu-Zn] (unknown origin) at 3.86 10^-5 mol/l after 10 min by UV-Vis spectrophotometric analysis.
The species named for experiment [2] is Oryctolagus cuniculus. The experiment in a line: Inactivation of New Zealand white Oryctolagus cuniculus (rabbit) Superoxide dismutase [Cu-Zn] at 28.8 mg QD for 7 days measured after 7 days by pyrogallol-oxidation method. It counts as functional, organism-based.
Experiment [3] is filed under the species Oryctolagus cuniculus. Kind of experiment: Inactivation of New Zealand white Oryctolagus cuniculus (rabbit) Superoxide dismutase [Cu-Zn] at 28.8 mg QD for 7 days measured up to 7 days by pyrogallol-oxidation method. It counts as functional, organism-based.
In experiment [4] the target is Superoxide dismutase [Cu-Zn] (Homo sapiens) (UniProt P00441). The experiment in a line: Binding affinity to Superoxide dismutase [Cu-Zn] (unknown origin) at 3.86 10^-5 mol/l after 10 min by fluorometric analysis.
The target is the same in experiment [5]. Kind of experiment: Binding affinity to Superoxide dismutase [Cu-Zn] (unknown origin) after 10 min at 20 degC by Stern-Volmer plot analysis.
Experiment [6] shares this target. The experiment in a line: Binding affinity to Superoxide dismutase [Cu-Zn] (unknown origin) after 10 min at 37 degC by Stern-Volmer plot analysis.
For experiment [7] the target is unchanged. The experiment in a line: Binding affinity to Superoxide dismutase [Cu-Zn] (unknown origin) after 10 min at 30 degC by Stern-Volmer plot analysis.

Sequence of Superoxide dismutase [Cu-Zn] (Homo sapiens) (P00441 whole entry): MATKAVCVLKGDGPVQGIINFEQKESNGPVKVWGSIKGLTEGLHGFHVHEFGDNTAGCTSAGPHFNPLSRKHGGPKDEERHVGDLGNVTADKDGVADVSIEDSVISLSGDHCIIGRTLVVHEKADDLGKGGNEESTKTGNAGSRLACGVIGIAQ

In the case of `CN(C)[C@@H]1C(O)=C(C(N)=O)C(=O)[C@@]2(O)C(O)=C3C(=O)c4c(O)cccc4[C@@](C)(O)[C@H]3C[C@@H]12`, the outcome in experiment [1], in experiment [3] and in experiment [4] was Active. Further, the outcome in experiment [2] was inactive. Further, the figures for the Kq in experiment [5], in experiment [6] and in experiment [7] were 5.97 ×10¹² L/mol/s, 5.25 ×10¹² L/mol/s and 5.3 ×10¹² L/mol/s, respectively.
On to `CN(C)[C@@H]1C(O)=C(C(N)=O)C(=O)[C@@]2(O)C(O)=C3C(=O)c4c(O)cccc4[C@@](C)(O)[C@H]3[C@H](O)[C@@H]12`, for which the outcome in experiment [1] and in experiment [4] was Active. Further, the K is 1.44 ×10⁵ L/mol in experiment [5], 3.62 ×10⁴ L/mol in experiment [6] and 8.93 ×10⁴ L/mol in experiment [7]. Further, the Kq in experiment [5] was found to be 4.37 ×10¹² L/mol/s; in experiment [6] it was 3.96 ×10¹² L/mol/s; in experiment [7] it was 4.22 ×10¹² L/mol/s.
On to `C[C@H]1c2cccc(O)c2C(=O)C2=C(O)[C@]3(O)C(=O)C(C(N)=O)=C(O)[C@@H](N(C)C)[C@@H]3[C@@H](O)[C@@H]21`, for which the result in experiment [1] and in experiment [4] was Active. Further, the K in experiment [5] came to 6.73 ×10⁷ L/mol; in experiment [6] it was 1.34 ×10⁶ L/mol; in experiment [7], 7.9 ×10⁶ L/mol. Besides, the Kq in experiment [5] was found to be 1.01 ×10¹³ L/mol/s; in experiment [6], 6.42 ×10¹² L/mol/s; in experiment [7], 7.73 ×10¹² L/mol/s.
